Each block holds one compound with its values, some of them ahead of it. Activity calls are given as the source filed them.
Key:
[1] = Trypanosoma cruzi growth suppression in host cells – NIH3T3 host cells, beta-gal luminescence, confirmation (AID 2044); format: functional, cell-based;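 also: intracellular parasites grown in NIH/3T3 mouse fibroblasts as host cells; luminescent beta-galactosidase reporter signal from transgenic T. cruzi replicating inside host cells; inhibitors lower the luminescence signal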
[2] = NIH3T3 cell viability loss – ATP luminescence, mouse fibroblasts, counter-screen, dose response (AID 2010); format: functional, cell-based;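 also: cells exposed to compound for about 90 hours before reading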
[3] = target: T1, Short transient receptor potential channel 4 (Mus musculus, UniProt Q9QUQ5); assay: block of DAMGO-driven TRPC4 calcium entry – cell-based, HEK293 TRPC4/mu-opioid, Fluo-4 calcium, dose response (AID 434942); format: functional;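 also: potency of inhibitors blocking the TRPC4 calcium response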
T1 sequence (Q9QUQ5 whole entry): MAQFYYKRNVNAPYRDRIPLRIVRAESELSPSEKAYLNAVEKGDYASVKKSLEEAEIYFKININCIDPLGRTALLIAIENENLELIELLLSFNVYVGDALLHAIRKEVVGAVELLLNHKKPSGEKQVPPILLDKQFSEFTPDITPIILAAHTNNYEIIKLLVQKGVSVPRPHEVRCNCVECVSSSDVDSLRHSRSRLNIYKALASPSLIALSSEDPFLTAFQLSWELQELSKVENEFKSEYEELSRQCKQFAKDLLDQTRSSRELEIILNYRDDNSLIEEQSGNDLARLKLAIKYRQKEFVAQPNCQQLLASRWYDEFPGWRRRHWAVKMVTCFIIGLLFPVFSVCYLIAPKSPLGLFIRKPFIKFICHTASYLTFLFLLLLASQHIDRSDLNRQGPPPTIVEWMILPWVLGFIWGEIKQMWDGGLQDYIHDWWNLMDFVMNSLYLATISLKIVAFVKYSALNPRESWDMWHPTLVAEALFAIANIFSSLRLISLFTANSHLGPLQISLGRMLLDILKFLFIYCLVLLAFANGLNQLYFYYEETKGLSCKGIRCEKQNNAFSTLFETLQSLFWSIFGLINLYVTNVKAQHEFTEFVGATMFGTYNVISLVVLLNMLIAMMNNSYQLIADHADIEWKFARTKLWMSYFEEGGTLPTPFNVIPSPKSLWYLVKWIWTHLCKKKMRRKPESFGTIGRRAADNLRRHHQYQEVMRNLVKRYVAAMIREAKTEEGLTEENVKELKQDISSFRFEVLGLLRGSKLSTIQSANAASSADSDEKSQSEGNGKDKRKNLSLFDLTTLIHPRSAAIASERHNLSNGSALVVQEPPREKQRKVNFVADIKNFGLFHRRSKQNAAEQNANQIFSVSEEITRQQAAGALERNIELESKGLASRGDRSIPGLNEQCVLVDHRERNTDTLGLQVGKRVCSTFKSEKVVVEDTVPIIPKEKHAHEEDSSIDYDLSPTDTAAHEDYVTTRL

[4] = target: T1, Short transient receptor potential channel 4; assay: calcium entry via TRPC4 opening agents – cell-based, HEK293 TRPC4/mu-opioid, Fluo-4 calcium, dose response (AID 434937); format: functional
[5] = cells
[6] = target: Prothrombin (Homo sapiens, UniProt P00734); assay: Thrombin 1536 HTS Dose Response Confirmation. [Related pubchem assays: 1046 (Thrombin 1536 HTS; hits were confirmed in this assay)]; format: functional
[7] = target: T2, Calpain-2 catalytic subunit (Sus scrofa, UniProt P43367); assay: m-calpain protease blockers, concentration series – biochemical, fluorogenic peptide substrate, dose response (AID 1420); format: functional
T2 sequence (P43367 whole entry): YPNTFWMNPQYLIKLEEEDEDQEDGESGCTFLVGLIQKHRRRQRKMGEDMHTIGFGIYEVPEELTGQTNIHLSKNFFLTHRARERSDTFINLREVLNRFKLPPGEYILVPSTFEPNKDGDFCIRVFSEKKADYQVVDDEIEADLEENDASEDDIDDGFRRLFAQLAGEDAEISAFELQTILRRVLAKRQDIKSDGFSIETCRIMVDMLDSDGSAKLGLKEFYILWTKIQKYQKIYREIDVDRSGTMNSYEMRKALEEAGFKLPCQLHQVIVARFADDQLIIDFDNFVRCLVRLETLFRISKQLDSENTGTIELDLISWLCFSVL

[8] = target: T3, Coagulation factor XII (Homo sapiens, UniProt P00748); format: functional;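 also: activated factor XIIa alpha cleaving a fluorogenic AMC peptide substrate; inhibitor potency from loss of enzyme activity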
T3 sequence (P00748 whole entry): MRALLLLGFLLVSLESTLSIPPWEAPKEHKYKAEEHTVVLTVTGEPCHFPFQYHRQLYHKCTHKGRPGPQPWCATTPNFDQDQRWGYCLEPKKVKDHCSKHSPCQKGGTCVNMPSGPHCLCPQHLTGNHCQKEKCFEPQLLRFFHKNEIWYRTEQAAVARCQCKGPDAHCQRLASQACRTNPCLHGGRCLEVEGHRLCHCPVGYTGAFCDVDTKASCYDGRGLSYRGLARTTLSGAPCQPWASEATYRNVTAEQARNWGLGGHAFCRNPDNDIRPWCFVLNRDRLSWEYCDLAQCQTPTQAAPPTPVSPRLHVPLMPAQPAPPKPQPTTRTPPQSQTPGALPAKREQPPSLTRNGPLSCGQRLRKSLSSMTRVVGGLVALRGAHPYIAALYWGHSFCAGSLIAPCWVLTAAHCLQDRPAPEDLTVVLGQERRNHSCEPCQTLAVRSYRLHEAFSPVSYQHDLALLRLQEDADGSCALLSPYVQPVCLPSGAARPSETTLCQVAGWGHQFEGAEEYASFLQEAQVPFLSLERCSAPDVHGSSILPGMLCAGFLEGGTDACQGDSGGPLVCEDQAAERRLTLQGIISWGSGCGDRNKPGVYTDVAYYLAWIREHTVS

[9] = target: Luciferin 4-monooxygenase (Photinus pyralis, UniProt P08659); assay: Counter Screen for Luciferase-based Assay Positives. [Related pubchem assays: 620, 618, 411 ]
[10] = system: HT-1080; assay: HT1080 cell viability loss – fluorescence readout (AID 620); format: functional, cell-based; settings: Homo sapiens
[11] = target: Glyceraldehyde-3-phosphate dehydrogenase (Homo sapiens, UniProt P04406)
[12] = target: T4, Mannose-6-phosphate isomerase (Homo sapiens, UniProt P34949); assay: MPI inhibition at elevated mannose 6-phosphate – biochemical, fluorescence intensity, high mannose 6-phosphate, primary screen (AID 1220)
T4 sequence (P34949 whole entry): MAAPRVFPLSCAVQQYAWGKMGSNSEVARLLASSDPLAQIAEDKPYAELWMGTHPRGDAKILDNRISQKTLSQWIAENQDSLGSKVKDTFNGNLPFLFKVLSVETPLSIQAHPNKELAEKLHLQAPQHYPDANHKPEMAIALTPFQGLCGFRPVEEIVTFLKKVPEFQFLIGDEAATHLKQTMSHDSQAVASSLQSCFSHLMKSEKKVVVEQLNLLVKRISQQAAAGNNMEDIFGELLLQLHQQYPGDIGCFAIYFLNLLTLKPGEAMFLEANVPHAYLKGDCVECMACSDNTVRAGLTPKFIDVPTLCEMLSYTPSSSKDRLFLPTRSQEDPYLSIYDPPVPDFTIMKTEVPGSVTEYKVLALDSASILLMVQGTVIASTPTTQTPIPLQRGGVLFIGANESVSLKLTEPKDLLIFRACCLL

[13] = target: T5, Histone-lysine N-methyltransferase NSD2 (Homo sapiens, UniProt O96028); format: biochemical
T5 sequence (O96028 whole entry): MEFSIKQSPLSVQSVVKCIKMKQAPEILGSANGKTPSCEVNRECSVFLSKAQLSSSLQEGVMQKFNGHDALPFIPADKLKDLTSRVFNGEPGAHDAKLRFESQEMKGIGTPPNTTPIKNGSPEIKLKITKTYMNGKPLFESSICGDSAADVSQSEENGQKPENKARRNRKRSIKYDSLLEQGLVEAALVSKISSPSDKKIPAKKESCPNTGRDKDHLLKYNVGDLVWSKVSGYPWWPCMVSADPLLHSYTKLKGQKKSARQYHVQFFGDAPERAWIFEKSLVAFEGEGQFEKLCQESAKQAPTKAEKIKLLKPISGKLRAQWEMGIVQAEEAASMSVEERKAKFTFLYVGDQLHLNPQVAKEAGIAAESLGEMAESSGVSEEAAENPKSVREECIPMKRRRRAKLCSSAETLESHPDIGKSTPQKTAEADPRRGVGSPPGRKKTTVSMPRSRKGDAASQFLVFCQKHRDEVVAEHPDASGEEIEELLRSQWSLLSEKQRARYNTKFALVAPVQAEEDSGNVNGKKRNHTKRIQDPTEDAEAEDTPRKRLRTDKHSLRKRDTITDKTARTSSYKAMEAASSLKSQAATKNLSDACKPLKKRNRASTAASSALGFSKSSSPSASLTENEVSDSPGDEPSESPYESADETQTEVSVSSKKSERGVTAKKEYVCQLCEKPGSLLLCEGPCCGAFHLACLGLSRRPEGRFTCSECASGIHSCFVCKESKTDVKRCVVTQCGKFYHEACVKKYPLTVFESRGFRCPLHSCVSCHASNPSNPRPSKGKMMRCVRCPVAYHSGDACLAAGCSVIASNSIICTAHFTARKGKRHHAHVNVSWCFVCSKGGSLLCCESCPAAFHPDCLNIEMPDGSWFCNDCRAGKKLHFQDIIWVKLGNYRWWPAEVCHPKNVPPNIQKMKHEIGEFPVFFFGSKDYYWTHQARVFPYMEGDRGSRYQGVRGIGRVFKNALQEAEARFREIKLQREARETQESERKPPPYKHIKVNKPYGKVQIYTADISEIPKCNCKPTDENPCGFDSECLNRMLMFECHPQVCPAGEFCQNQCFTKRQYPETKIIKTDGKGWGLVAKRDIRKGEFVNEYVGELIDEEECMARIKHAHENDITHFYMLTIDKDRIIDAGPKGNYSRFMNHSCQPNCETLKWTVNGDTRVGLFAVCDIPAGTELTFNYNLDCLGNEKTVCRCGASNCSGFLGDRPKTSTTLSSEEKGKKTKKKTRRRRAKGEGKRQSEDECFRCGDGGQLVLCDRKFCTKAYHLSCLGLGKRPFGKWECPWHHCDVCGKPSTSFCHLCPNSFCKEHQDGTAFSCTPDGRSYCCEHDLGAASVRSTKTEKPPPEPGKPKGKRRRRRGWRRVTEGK

[14] = target: Cytochrome P450 2C19 (Homo sapiens, UniProt P33261); assay: Cytochrome panel assay with activity outcomes. Panel member name: p450-cyp2c19 Compounds with AC50 equal or less than 10 uM are considered active; format: functional; settings: read-out: AC50
[15] = target: Cytochrome P450 2C9 (Homo sapiens, UniProt P11712)
Chain of Cytochrome P450 2C9 (P11712 whole entry): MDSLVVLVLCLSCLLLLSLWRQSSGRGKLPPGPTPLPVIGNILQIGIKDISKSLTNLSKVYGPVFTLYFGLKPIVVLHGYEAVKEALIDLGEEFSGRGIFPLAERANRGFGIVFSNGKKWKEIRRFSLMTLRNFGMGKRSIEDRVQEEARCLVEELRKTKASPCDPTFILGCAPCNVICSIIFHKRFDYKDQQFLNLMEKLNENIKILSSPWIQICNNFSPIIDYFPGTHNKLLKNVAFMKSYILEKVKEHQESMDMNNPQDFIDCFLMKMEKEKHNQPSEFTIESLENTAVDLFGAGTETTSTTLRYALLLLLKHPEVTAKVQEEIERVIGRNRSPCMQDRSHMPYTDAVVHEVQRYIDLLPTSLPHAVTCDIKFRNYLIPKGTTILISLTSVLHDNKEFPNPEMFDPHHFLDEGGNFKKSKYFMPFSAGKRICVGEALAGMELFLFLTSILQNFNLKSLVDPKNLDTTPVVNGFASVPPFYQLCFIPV

Chain of Luciferin 4-monooxygenase (P08659 whole entry): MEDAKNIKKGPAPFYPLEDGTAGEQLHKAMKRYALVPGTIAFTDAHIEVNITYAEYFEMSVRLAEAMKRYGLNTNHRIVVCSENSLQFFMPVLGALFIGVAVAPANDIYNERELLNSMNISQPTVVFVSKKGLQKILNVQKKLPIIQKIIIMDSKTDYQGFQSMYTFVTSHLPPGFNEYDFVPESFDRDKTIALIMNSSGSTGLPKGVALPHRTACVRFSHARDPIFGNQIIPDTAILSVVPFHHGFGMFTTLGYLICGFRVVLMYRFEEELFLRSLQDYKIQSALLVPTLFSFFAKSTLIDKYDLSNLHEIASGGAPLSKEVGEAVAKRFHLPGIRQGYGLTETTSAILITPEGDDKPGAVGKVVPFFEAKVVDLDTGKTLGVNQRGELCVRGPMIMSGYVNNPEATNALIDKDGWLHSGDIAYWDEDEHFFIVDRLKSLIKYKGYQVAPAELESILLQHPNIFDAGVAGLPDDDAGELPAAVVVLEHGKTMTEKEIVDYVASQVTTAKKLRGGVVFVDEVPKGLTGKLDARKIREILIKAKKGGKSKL
Chain of Cytochrome P450 2C19 (P33261 whole entry): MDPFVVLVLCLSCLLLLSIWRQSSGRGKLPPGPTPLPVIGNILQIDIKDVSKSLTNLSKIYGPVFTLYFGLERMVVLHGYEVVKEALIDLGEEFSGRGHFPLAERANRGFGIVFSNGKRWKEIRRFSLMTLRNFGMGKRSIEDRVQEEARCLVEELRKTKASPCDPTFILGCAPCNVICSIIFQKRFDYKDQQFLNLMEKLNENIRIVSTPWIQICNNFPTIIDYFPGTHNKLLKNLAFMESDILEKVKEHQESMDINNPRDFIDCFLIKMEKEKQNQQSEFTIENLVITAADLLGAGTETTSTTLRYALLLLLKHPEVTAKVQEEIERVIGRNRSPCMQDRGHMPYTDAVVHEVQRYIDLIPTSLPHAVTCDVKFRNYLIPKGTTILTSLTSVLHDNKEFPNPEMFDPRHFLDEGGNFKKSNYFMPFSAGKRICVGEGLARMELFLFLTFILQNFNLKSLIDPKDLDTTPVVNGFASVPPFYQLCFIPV
Chain of Glyceraldehyde-3-phosphate dehydrogenase (P04406 whole entry): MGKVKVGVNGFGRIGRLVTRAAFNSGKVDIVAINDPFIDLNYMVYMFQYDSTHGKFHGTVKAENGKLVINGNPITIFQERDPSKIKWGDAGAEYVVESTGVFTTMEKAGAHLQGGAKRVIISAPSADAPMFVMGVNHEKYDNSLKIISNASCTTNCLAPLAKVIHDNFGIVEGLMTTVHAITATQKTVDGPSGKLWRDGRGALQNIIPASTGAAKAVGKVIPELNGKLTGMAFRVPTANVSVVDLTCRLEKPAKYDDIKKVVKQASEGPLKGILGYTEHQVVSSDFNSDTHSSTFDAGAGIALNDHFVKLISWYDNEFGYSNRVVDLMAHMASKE

SMILES: CN(C)CCCN(C(=O)c1ccc(S(=O)(=O)N(C)C)cc1)c1nc2ccc(F)cc2s1
EC50 [1]: < 0.1 µM (active) | EC50 [2]: > 60 µM (not active) | EC50 [3]: 5.96 µM (active) | EC50 [4]: 9.44 µM (active) | EC50 [5]: 0.012 µM (active)

SMILES: Cc1ccc2c(c1)C1CN(C)CCC1N2C(=O)c1ccc(Cl)c(S(=O)(=O)N2CCOCC2)c1 (stereo unspecified)
EC50 [1]: < 0.1 µM (active) | EC50 [2]: > 60 µM (not active) | EC50 [5]: 0.199 µM (active)

SMILES: OC1CCN(Cc2ccc(OCc3ccccc3)cc2)CC1
EC50 [1]: < 0.1 µM (active) | EC50 [2]: > 60 µM (not active) | EC50 [5]: 0.207 µM (active)

SMILES: O=C(NCC(c1cccnc1)N1CCN(c2ccc(F)cc2)CC1)OCc1ccccc1 (stereo unspecified)
EC50 [1]: < 0.1 µM (active) | EC50 [2]: > 60 µM (not active) | EC50 [5]: 0.089 µM (active)

SMILES: Cc1ccc(CNc2nc3ccccc3s2)s1
EC50 [9]: 14.4 µM (active) | EC50 [10]: > 50 µM (not active)

SMILES: O=C(O)c1cccc(C(=O)Nc2cccc(NC(=O)C3CCCO3)c2)c1 (stereo unspecified)
EC50 [9]: 56.3 µM (active) | IC50 [11]: > 100 µM (not active) | EC50 [10]: > 50 µM (not active)

SMILES: O=C(Nc1ccccc1)C12CC3CC(C1)CC(n1cnc([N+](=O)[O-])n1)(C3)C2
EC50 [1]: < 0.1 µM (active) | EC50 [2]: > 60 µM (not active) | EC50 [5]: 0.06 µM (active)

SMILES: CC(C)c1ccc2oc(-c3ccc(N)cc3)nc2c1
EC50 [9]: 12.3 µM (active) | EC50 [10]: > 50 µM (not active)

SMILES: CCOc1ccc(OCc2ccc(C(=O)O)o2)cc1
EC50 [9]: 0.36 µM (active) | EC50 [10]: > 50 µM (not active)

SMILES: Cn1cc2ccc(N)cc2n1
IC50 [12]: > 50 µM (not active) | AC50 [13]: 3.81 µM (active)

Other lines, results leading:

IC50 [6]: > 50 µM (not active) | IC50 [7]: 9.51 µM (not active)
SMILES: CC(C)c1ccc(-c2noc(C3CCCN(C(=O)c4ccc(F)cc4F)C3)n2)cc1 (stereo unspecified)

IC50 [6]: > 50 µM (not active)
SMILES: Cc1ccc(NC(=O)CN(C)C(=O)CCC(=O)c2cccs2)cc1

IC50 [6]: > 50 µM (not active)
SMILES: COc1cccc(C(=O)NNC(=O)Cc2ccc([N+](=O)[O-])cc2)c1

IC50 [6]: > 50 µM (not active) | IC50 [8]: > 50 µM (inactive)
SMILES: NS(=O)(=O)c1ccc(CCNC(=O)Cc2ccccc2[N+](=O)[O-])cc1

IC50 [6]: 0.0965 µM (active)
SMILES: CC(=O)n1nc(-c2ccccc2)nc1NCc1cccs1

IC50 [6]: 3.39 µM (active)
SMILES: CC(=O)n1nc(-c2ccccc2)nc1NCc1ccc(N(C)C)cc1

IC50 [6]: > 50 µM (not active)
SMILES: O=C(CN1C(=O)CSc2ccccc21)N1CCc2ccccc21

IC50 [6]: 0.00551 µM (active)
SMILES: CSc1nc(-c2ccco2)nn1C(=O)CCc1ccccc1

IC50 [6]: 0.0293 µM (active) | AC50 [14]: 1.58 µM (inconclusive) | AC50 [15]: 0.631 µM (inconclusive)
SMILES: O=C(c1ccc([N+](=O)[O-])cc1)n1nc(-c2ccccc2)nc1NCc1ccccc1
